Data: publication PMC6746776, “TA*p63 and GTAp63 achieve tighter transcriptional regulation in quality control by converting an inhibitory element into an additional transactivation domain” (Cell Death & Disease, 2019)
“Also recorded” adds a separate entry of the source.

How the values were obtained:
[1] = test system: TA*p63α in Sum159 cells; experiment: BN-PAGE of Sum159 lysate, oligomeric state of endogenous TA*p63α; type: cell-based, human; settings: 10 µM Dox, different periods of time, BN-PAGE (3–12%)
Method: (§1) Immunoprecipitation was performed with two different p63 specific antibodies, AHP1815 (BioRad) and ab124267 (Abcam). For detection on WB, the p63α XP (D2K8X, cell signaling) antibody was used. b Specific TA*-peptides were found in two independent IP-MS analyses of immunoprecipitated p63 from Sum159 cells. Immunoprecipitation was performed with the p63 antibody ab124267 (Abcam). Two different types of mass spectrometers relying on different fragmentation and detection approaches were used for the experiments (IT: ion trap, CID: collision induced dissociation, FT: Fourier transform, HCD: higher-energy collisional dissociation). c BN-PAGE (3–12%) of Sum159 lysate followed by western blotting for TA*p63α. […] Cells were treated with 1.5 µM Dox or DMSO for 24 h (six-well plate) and cultured for additional 24–30 h. Sum159 cells were fixed with glutaraldehyde (6%) and stained with crystal violet (0.5%)
To test whether TA*p63α can be activated in Sum159 cells by chemotherapeutic agents and induce apoptosis we treated cells with 10 µM Dox. […] Furthermore, the apoptosis marker cleaved PARP and cleaved Caspase3 are detectable starting 4 h following treatment (Supplementary Fig. S8). We also investigated cell survival.

[2] = test system: Sum159 cells; experiment: Western blot, apoptosis markers cleaved PARP and cleaved Caspase3 in Sum159 cells; type: cell-based, human; settings: 10 µM Dox, immunoblotting
Method: (§2) 4–15 or 7.5% SDS–PAGE Mini-PROTEAN TGX gels (BioRad) were blotted using the semidry Trans-Blot Turbo Transfer system (BioRad).The following antibodies were prepared in 5% milk in TBS-T and incubated overnight at 4 °C: anti-Myc (1:1000, clone 4A6, Millipore), anti-p63 (1:2500, ab124762, Abcam), anti-p63α XP (1:1000, D2K8X, Cell Signaling), anti-GAPDH (1:20,000, clone 6C5, Merck), anti-p53 (1:500, DO-1, Santa Cruz), anti-PARP (1:1000, 9542, Cell Signaling), anti-cleaved caspase3 (1:1000, 5A1E,Cell Signaling), and anti-vinculin (1:1000, clone 7F9, Santa Cruz). Secondary antibodies, used for detection, were also prepared in 5% milk in TBS-T and incubated for 1 h at RT (goat anti-mouse HRP, 1:5000, A9917, Sigma–Aldrich; goat anti-rabbit HRP, 1:2000, Jackson Immuno Research Europe Ltd., 111–035–144). Quantification of western blot signals was performed by using ImageJ.
(§3) Supplementary Figure S8 Dox treatment induces apoptosis in the breast cancer cell line Sum159. SDS-PAGEs followed by immunoblotting of Dox treated (10 µM) Sum159 cells. (a) Western blot was analyzed for the apoptosis markers PARP (#9542, Cell Signaling) and caspase 3 (5A1E, Cell Signaling). PARP and caspase3 cleavage were detectable starting at 4 h following treatment. (b) Mutant p53 (DO-1, Santa Cruz) and TA*p63α (D2K8X, Cell Signaling) levels were also investigated. […] GAPDH was used as loading control.

[3] = test system: Sum159 cells; experiment: Cell survival assay of Sum159 cells (crystal violet); type: cell-based, human; settings: 1.5 µM Dox for 24 h, cultured for additional 24 h (24–30 h in method), vs DMSO
Method: as §1
Sum159 cells were seeded in a six-well plate. Two days after seeding, cells were treated either with 1.5 µM Dox or DMSO for 24 h. The medium was changed and cells were cultured for additional 24–30 h. Afterwards, cells were washed three times with PBS and the fixation and staining solution (0.5% crystal violet, 6% glutaraldehyde) was incubated 1–2 h at RT. The solution was aspirated and the fixed cells were washed about five times with H2O and dried for 1–2 days at RT.

[4] = test system: TA*p63α in Sum159 cells; experiment: Western blot, TA*p63α level in Sum159 cells; type: cell-based, human; settings: 10 µM Dox, immunoblotting (D2K8X)
Method: as §2, §3

[5] = test system: mutant p53 in Sum159 cells; experiment: Western blot, mutant p53 level in Sum159 cells; type: cell-based, human; settings: 10 µM Dox, mutant p53, immunoblotting (DO-1)
Method: as §2, §3

[6] = test system: TAp63α; experiment: BN-PAGE oligomeric state of TAp63α upon Dox treatment
Method: (§4) As a control, we used the S582/S583A mutants, which remove the Chk2 priming site preventing tetramerization[13].
(§5) Three hundred nanogram expression vector carrying the p63α gene were transiently transfected in U2OS cells (12-well plate). The next day, cells were treated with 10 µM Dox for 6 h. Migration of the different oligomeric states is indicated by T (tetramer), D (dimer), and M (monomer). […] Western blot analysis was carried out using an anti-myc antibody (4A6, Merck). Cells were pre-incubated with increasing Chk2 (BML-277, Merck) or CK1 inhibitor (PF670462, Sigma–Aldrich) concentrations (5, 25, 50 µM) for 1 h. Afterwards, 10 µM Dox was added and cells were harvested 6 h later. Migration of the different oligomeric states is indicated by T (tetramer), D (dimer), and M (monomer). Vinculin was used as loading control. Protein levels loaded on BN-PAGE were adjusted to equal p63 amounts by prior western blot analysis. SDS-PAGE to detect phosphoshifts were not input adjusted
(§6) H1299 cells were transfected using the Qiagen Effectene kit according to the manufacturer’s manual in a 12-well plate or H1299 cells stably expressing p63 isoforms were used. Cells were harvested and lysed in NP lysis buffer (20 mM Tris, 150 mM NaCl, 2 mM MgCl2, 20 mM CHAPS, 1 mM DTT, complete protease inhibitor cocktail (Roche), PhosSTOP (Roche) pH 7.4 or pH 8.0). Benzonase (Merck) was added and samples were lysed on ice for 1 h. BN-PAGE (3–12%, Thermo Fisher Scientific) was performed and blotted as previously described[17],[35]. Protein levels loaded on BN-PAGE were adjusted to equal p63 amounts by prior western blot analysis. SDS-PAGE to detect phosphoshifts were not input adjusted.
(§7) 300 ng expression vector carrying the p63 gene were transiently transfected in H1299 cells (12-well plate). The next day, cells were treated with 10 µM Dox for 6 h. Migration of the different oligomeric states is indicated by T (tetramer), D (dimer) and M (monomer). […] Stably p63 expressing H1299 were treated with 10 µM Dox for up to 10 h. Protein levels loaded on BN-PAGE were adjusted to equal p63 amounts by prior western blot analysis. SDS-PAGE to detect phosphoshifts were not input adjusted.

[7] = test system: TA*p63α; experiment: BN-PAGE oligomeric state of TA*p63α upon Dox treatment
Method: as §4, §5, §6, §7

[8] = test system: GTAp63α; experiment: BN-PAGE oligomeric state of GTAp63α upon Dox treatment
Method: as §4, §5, §6, §7

[9] = H1299 stably expressing, 10 µM Dox for up to 10 h, BN-PAGE (Supplementary Fig. S4c)
[10] = transfected U2OS and H1299 cells, 10 µM Dox, 6 h, BN-PAGE

COc1cccc2c1C(=O)c1c(O)c3c(c(O)c1C2=O)C[C@@](O)(C(=O)CO)C[C@@H]3O[C@H]1C[C@H](N)[C@H](O)[C@H](C)O1 [Dox, doxorubicin]
shift of oligomeric state of TA*p63α in Sum159 cells [1]: activated upon Dox treatment; also recorded: shifted from the inactive, dimeric to the active, tetrameric form | shift of oligomeric state of TA*p63α in Sum159 cells ([1]; listed as doxorubicin): TA*p63α gets activated | time from which cleaved Caspase3 is detectable [2]: 4 h | time from which cleaved PARP is detectable [2]: 4 h | cell survival (cell density) [3]: clear decrease in cell density | p63 level during treatment [4]: A decrease in p63 and p53 level is detectable | p53 level during treatment [5]: A decrease in p63 and p53 level is detectable | tetramer/dimer ratio following Dox, TAp63α [6, 9]: almost completely converted into tetramers | time after which TAp63α becomes partly tetrameric ([6]; tetramerization kinetics, H1299 stably expressing, 10 µM Dox for up to 10 h): 1 h | activation to tetrameric state, TAp63α [6, 10]: activates all three isoforms to adopt tetrameric states | tetramer/dimer ratio following Dox, TA*p63α [7, 9]: do not achieve predominant tetramerization like TAp63α; also recorded: significant population of the dimeric state; also recorded: do not reach the high tetramer/dimer ratio seen with TAp63α | activation to tetrameric state, TA*p63α [7, 10]: activates all three isoforms to adopt tetrameric states | tetramer/dimer ratio following Dox, GTAp63α [8, 9]: do not achieve predominant tetramerization like TAp63α; also recorded: significant population of the dimeric state; also recorded: do not reach the high tetramer/dimer ratio seen with TAp63α | activation to tetrameric state, GTAp63α [8, 10]: activates all three isoforms to adopt tetrameric states
